Results: patent publication US20040014697A1, “Melanoma antigenic peptides” (priority 1998, published 2004)

Tested on: Hurley RI 000 tumor infiltrating lymphocytes (cytotoxic T cell specific for the G9-209 epitope encoded by the human melanoma associate protein gp100)
Assay: sensitization of tumor infiltrating lymphocytes and interferon-γ release
Format: cell-based
Details: Hurley RI 000 TIL, G9-209 (gp100) specific
Description: This invention provides novel, synthetic peptide sequences which are useful as components of melanoma vaccines and to expand immune effector cells that are specific for melanoma. […] These assay methods are known in the art and disclosed in Zugel, U. et al. (1998) J Immunol. 161:1705-1709) and Salgaller, M. L. et al. (1995) Infra. The peptide sequences of the present invention differ from the natural epitope (ITDQVPFSV) (Seq. ID No. 5) in two ways: (1) they contain mutation sin the putative HLA-A2 binding domain (amino acid residues 1, 2, and 9) conferring tighter binding to the MHC, and (2) they contain mutations in the putative T cell receptor-binding domain (amino acid residues 3-8) resulting in an apparent increased avidity for the T cell receptor. They also are novel over the synthetic peptides disclosed by Salgaller, et al. (1995) Cancer Res. 55:4972-4979.

## FLDQVAFXV
  sensitize tumor infiltrating lymphocytes and interferon-γ release: shown to sensitize

## FLFSWYAXV
  sensitize tumor infiltrating lymphocytes and interferon-γ release: shown to sensitize
